Measurements: US20090012045A1, “Methods of Treating Cell Proliferative Disorders” (RIGEL PHARMACEUTICALS, INC., priority 2007, published 2009)
pIC50: −log10 of the molar value.

What was measured:
[1] = target: Ret (h) (Homo sapiens, UniProt P07949); assay: RET kinase activity, [γ-33P-ATP] filter assay; type: biochemical
Procedure: RET kinase is pre-diluted to a 10× working concentration prior to addition into the assay. The composition of the dilution buffer is 20 mM MOPS pH 7.0, 1 mM EDTA, 0.1% p-mercaptoethanol, 0.01% Brij-35, 5% glycerol and 1 mg/ml BSA.
The reaction is initiated by the addition of the MgATP mix. After incubation for 40 minutes at room temperature, the reaction is stopped by the addition of 5 μL of a 3% phosphoric acid solution. 10 μL of the reaction is then spotted onto a P30 filtermat and washed three times for 5 minutes in 75 mM phosphoric acid and once in methanol prior to drying and scintillation counting.

[2] = target: T1, Ret (Homo sapiens, UniProt P07949); assay: Ret autophosphorylation, fluorescence polarization assay; type: biochemical; conditions: 4 ng Ret, 5 μM ATP, 20 min; read-out: IC50 for inhibition of Ret autophosphorylation
T1 construct: purchased Upstate 14-570
T1 sequence (P07949 658-1114 limits assumed): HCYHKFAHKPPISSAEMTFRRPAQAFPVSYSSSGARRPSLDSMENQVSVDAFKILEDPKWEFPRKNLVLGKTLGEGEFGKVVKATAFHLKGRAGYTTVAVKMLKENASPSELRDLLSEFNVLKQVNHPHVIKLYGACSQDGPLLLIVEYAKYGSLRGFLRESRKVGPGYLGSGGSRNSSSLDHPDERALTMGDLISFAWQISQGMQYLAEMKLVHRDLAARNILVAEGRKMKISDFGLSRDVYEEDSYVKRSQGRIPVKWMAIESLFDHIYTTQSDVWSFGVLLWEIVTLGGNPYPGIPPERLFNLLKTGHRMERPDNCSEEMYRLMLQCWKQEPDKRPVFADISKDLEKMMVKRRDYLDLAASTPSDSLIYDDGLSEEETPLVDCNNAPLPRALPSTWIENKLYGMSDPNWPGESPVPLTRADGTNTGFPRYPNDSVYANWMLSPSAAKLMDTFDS
Procedure: Compounds were serially diluted in DMSO starting from 500× the desired final concentration and then diluted to 1% DMSO in kinase buffer (20 mM HEPES, pH 7.4, 5 mM MgCl2, 2 mM MnCl2, 1 mM DTT, 0.1 mg/mL acetylated BGG). Compound in 1% DMSO (0.2% DMSO final) was mixed with ATP in kinase buffer at room temperature.
Reactions were allowed to proceed at room temperature.
The plates were incubated for 30 minutes in the dark at room temperature and then read on a Polarion fluorescence polarization plate reader (Tecan).
Data were converted to amount of phosphopeptide present using a calibration curve generated by competition with the phosphopeptide competitor provided in the Tyrosine Kinase Assay Kit, Green (Invitrogen).

[3] = in vitro metabolism of prodrug to active drug; type: in vitro ADME; conditions: rat plasma, rat hepatic and intestinal microsomal preparations
Excerpt: Although phosphate-containing prodrugs suitable for oral administration are of interest, skilled artisans will appreciate that prodrugs including phosphate-containing progroups R^p can be administered via other routes of administration, as phosphatases are distributed throughout the body. […] Thus, the only requirement is that the particular phosphate-containing progroup R^p selected should be removable under the conditions of intended use.

[4] = in vivo metabolism of prodrug to active drug
Excerpt: It has recently been discovered that a phosphate-containing prodrug according to the structure illustrated below (Compound P-1):
19, 2006 (US2006/0211657 A1), at paragraphs 134-142 and 146 of the printed publication.

[5] = compound concentration 0.03 micromoles
[6] = compound concentration 0.3 micromoles
[7] = compound concentration 1 micromoles
[8] = compound concentration 0.02 micromoles
[9] = compound concentration 0.2 micromoles

Chain of Ret (h) (P07949 29-1114): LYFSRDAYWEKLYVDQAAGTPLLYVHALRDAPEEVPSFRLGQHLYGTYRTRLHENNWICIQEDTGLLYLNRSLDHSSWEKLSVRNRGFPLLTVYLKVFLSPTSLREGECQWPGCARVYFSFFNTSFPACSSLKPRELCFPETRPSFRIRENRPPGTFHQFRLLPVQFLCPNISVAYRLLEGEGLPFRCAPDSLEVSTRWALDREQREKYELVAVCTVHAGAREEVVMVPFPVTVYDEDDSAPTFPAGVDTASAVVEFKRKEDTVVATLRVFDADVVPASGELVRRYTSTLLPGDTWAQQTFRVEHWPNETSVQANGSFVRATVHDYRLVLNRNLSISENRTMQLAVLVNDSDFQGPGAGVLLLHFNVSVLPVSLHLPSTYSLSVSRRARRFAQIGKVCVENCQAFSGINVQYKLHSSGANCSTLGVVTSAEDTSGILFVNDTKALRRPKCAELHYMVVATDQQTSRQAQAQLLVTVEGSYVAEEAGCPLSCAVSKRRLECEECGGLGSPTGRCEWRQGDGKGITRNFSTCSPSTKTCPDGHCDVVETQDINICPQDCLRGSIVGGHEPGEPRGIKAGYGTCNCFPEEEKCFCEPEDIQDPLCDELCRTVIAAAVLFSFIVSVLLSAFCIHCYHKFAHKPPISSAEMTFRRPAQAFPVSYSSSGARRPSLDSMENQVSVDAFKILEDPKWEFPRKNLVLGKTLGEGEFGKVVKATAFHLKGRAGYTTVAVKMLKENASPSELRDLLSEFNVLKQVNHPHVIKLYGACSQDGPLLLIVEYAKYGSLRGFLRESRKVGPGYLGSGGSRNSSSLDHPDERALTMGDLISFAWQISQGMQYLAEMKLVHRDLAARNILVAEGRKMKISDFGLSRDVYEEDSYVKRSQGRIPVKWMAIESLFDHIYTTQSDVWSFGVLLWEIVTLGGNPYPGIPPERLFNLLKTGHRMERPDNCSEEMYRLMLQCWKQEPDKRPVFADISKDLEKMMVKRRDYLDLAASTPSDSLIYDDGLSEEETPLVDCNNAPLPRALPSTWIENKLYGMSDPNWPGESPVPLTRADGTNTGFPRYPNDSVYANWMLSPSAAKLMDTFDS

Compound	RET kinase autophosphorylation activity as a percentage of control RET kinase activity [1, 7] [%]	RET kinase autophosphorylation activity as a percentage of control RET kinase activity [1, 9] [%]	pIC50 [2]	other results
Cc1noc(COc2ccc(Nc3nc(Nc4cccc(O)c4)ncc3F)cc2)n1 [Compound 5, 3-(5-fluoro-4-(4-((3-methyl-1,2,4-oxadiazol-5-yl)methoxy)phenylamino)pyrimidin-2-ylamino)phenol]	0	–	–	RET kinase autophosphorylation activity as a percentage of control RET kinase activity ([1]; compound concentration 0.01 micromoles): 0%; RET kinase autophosphorylation activity as a percentage of control RET kinase activity [1, 5]: 0%; RET kinase autophosphorylation activity as a percentage of control RET kinase activity ([1]; compound concentration 0.1 micromoles): 0%; RET kinase autophosphorylation activity as a percentage of control RET kinase activity [1, 6]: 0%
Cc1cc(Nc2ncc(F)c(NC3CCCC3C(N)=O)n2)ccc1N1CCN(C)CC1 (centres unmarked) [Compound 7, 2-(5-fluoro-2-(3-methyl-4-(4-methylpiperazin-1-yl)phenylamino)pyrimidin-4-ylamino)cyclo-pentanecarboxamide]	2	34	–	RET kinase autophosphorylation activity as a percentage of control RET kinase activity [1, 8]: 74%
2-(3-(4-(2,2-difluoro-3-oxo-3,4-dihydro-2H-pyrido[3,2-b][1,4]oxazin-6-ylamino)-5-fluoropyrimidin-2-ylamino)phenoxy)-N-methylacetamide [Compound 2]	0	–	7.93	RET kinase autophosphorylation activity as a percentage of control RET kinase activity [1, 5]: 0%; RET kinase autophosphorylation activity as a percentage of control RET kinase activity ([1]; compound concentration 3 micromoles): 0%
Cc1cc(Nc2cc(N3CCN(C)CC3)nc(Sc3ccc(NC(=O)C4CC4)cc3)n2)[nH]n1 [Compound 6, N-(4-(4-(3-methyl-1H-pyrazol-5-ylamino)-6-(4-methylpiperazin-1-yl)pyrimidin-2-ylthio)phenyl)cyclopropanecarboxamide]	4	26	–	RET kinase autophosphorylation activity as a percentage of control RET kinase activity [1, 8]: 78%
COc1cc(Nc2ncc(F)c(Nc3ccc4c(n3)NC(=O)C(C)(C)O4)n2)cc(O)c1OC [Compound 4, 6-(5-fluoro-2-(3-hydroxy-4,5-dimethoxy-phenylamino)pyrimidin-4-ylamino)-2,2-dimethyl-2H-pyrido[3,2-b][1,4]oxazin-3(4H)-one]	–	–	8.14	–
COc1cc(Nc2ncc(F)c(Nc3ccc4c(n3)N(COP(=O)(O)O)C(=O)C(C)(C)O4)n2)cc(OC)c1OC [Compound 9, (6-(5-fluoro-2-(3,4,5-trimethoxyphenylamino)pyrimidin-4-ylamino)-2,2-dimethyl-3-oxo-2H-pyrido[3,2-b][1,4]oxazin-4(3H)-yl)methyldihydrogenphosphate]	11	–	–	metabolism of prodrug to the active drug Compound 1 [3]: metabolize to the active drug Compound 1; metabolism of prodrug to the active drug Compound 1 [4]: metabolizes in vivo to the corresponding active 2,4-pyrimidinediamine compound; RET kinase autophosphorylation activity as a percentage of control RET kinase activity [1, 6]: 47%
Cc1ccc(Nc2ncc(F)c(Nc3ccc(OCC#N)cc3)n2)cc1S(N)(=O)=O [Compound 10]	1	19	–	–
Cc1nc2ccc(Nc3ncc(F)c(Nc4ccc5c(c4)NC(=O)C(C)(C)S5)n3)cc2[nH]1 [Compound 3, 6-(5-fluoro-2-(2-methyl-1H-benzo[d]imidazol-6-ylamino)pyrimidin-4-ylamino)-2,3-dimethyl-2H-benzo[b][1,4]thiazin-3(4H)-one]	–	–	7.78	–
